Paper PMC3517777, “Phase I study of TP300 in patients with advanced solid tumors with pharmacokinetic, pharmacogenetic and pharmacodynamic analyses” (BMC Cancer, 2012)

How the values were obtained:
[1] = design: method as in PMID 10873073; details: irinotecan 350 mg/m^2, 3-weekly dosing regimen; cited from earlier work
[2] = Plasma and urine pharmacokinetics after TP300 infusion (LC-MS/MS, non-compartmental); assay type: in vivo, human; details: for fe (urinary excretion ratio): urine up to 48 hours, mean
Experimental: Venous blood (3 mL) was taken into sodium heparin tubes containing 30 μL of 46% citric acid, centrifuged 1500g at 4°C for 10 min and 1 mol/L hydrochloric acid was added (1:10) to plasma from each subject at 10 time points during cycle 1 (pre dose, then 1, 1.25, 1.5, 2, 3, 5, 8, 24, 48 hours after the start of administration) and stored at −70°C. Samples were processed by extraction of protein using addition of organic solvent containing internal standards and assayed by LC-MS/MS with a robust, sensitive and validated method for the simultaneous determination of a novel topoisomerase 1 inhibitor CH0793076 (TP3076), the prodrug CH4556300 (TP300), and the active metabolite CH0793011 (TP3011). All plasma had been acidified during collection to avoid the pH-based degradation of TP300 and to shift the equilibria of TP3076 and TP3011 between the lactone and carboxylate forms towards the lactone forms. After the plasma proteins were precipitated with methanol:acetonitrile:HCl 1M (50:50:1, v:v:v) containing stable isotopic internal standards, the analytes were trapped on an Xterra MS C18 column (10×2.1 mm i.d., 5 μm) and separated on a Gemini C18 column (50×2.0 mm i.d., 5 μm) using column-switching liquid chromatography. Electrospray ionization in the positive-ion mode and multiple reaction monitoring were used to quantify the analytes with transitions m/z 587.2>441.2 for TP300, 459.1>415.2 for 3076, and 475.1>361.1 for 3011. The inter- and intra-day precisions were below 12%, and the accuracy was between −16% and 16% at the lower limit of quantitation (LLOQ) and between −11% and 14% at the other quality controls. The LLOQs of TP300, TP3076, and TP3011 were 0.8, 0.04, and 0.04 ng/mL, respectively.
Pharmacokinetic parameters derived from plasma concentration-time data of TP3076 or TP3011 by non-compartmental methods using WinNonlin (version 5.1; Pharsight Corp), included maximal plasma concentration (Cmax) and time of Cmax (Tmax), apparent plasma elimination half-life (t1/2), and the area under the curve (AUC). The urinary excretion ratio (fe) of TP3076 and TP3011 was calculated from the urinary concentration and volume up to 48 hours after administration, and the administration dose. The linearity of Cmax and AUC was determined with linear regression, analysis of variance and power model analysis. The sum of the AUCs of TP3076 and TP3011 was plotted against percentage (%) fall in nadir neutrophil count to explore the relationship between exposure and myelosuppression as a measure of anti-proliferative effect and a sigmoid Emax model fitted to the data: […]

[3] = test system: HCT-116 colorectal cancer cells; design: method as in PMID 19254843; details: HCT-116 colorectal cancer cells in vitro; cited from earlier work
Topo-1 = test system: Topo-1; design: method as in PMID 19495753; details: cited from earlier work
AOX1 = details: human, in vivo
Experimental: (§1) Blood samples for pharmacogenomic analysis were collected and all samples anonymised for subsequent storage, assay and analysis. The impact on Cmax and AUC of genetic polymorphisms of CYP2D6, which is assumed to make some contribution to the hydroxylation of TP3076, but not TP3011, AOX1, which metabolises TP3076 to TP3011, and UGT1A1, which metabolises SN-38 to its glucuronide, but is not believed to influence TP300 metabolism were explored. The analysis was performed with the invader method or polymerase chain reaction (PCR)-invader method for single nucleotide polymorphisms (SNPs) of CYP2D6 and UGT1A1 *28 and with the long-PCR method for deletion of CYP2D6 and UGT1A1 gene. AOX1 SNPs were analysed by a direct sequencing method. Genomic DNAs were extracted from frozen peripheral blood of 31 subjects using an automated DNA extractor BioRobotMDx and commercial DNA purification kits (Qiagen). Quality and quantity of the DNAs were checked by the measurement of absorbencies at 260 nm and 280 nm. Primers were designed to amplify all the 35 exons of Aldehyde oxidese 1 gene (NCBI accession No. NM_001159) including some intronic flanking regions. The specificity of PCR conditions was confirmed by the agarose gel electrophoresis. Amplicons were prepared twice for every exons. The amplicons were subsequently treated with ExoSAP-IT (GE Healthcare) followed by the reactions with a cycle sequencing kit (BigDye Terminator v3.1, Applied Biosystems). The fragments obtained were purified using X-Terninator purification kit (Applied Biosystems) and analysed on an automated DNA sequencer (3730xl DNA Analyzer, Applied Biosystems). The resulted sequences were compared against the reference sequence using the variant reporter software (Applied Biosystems).

UGT1A1 = details: human, in vivo
Experimental: as §1

CYP2D6 = test system: CYP2D6; design: species or system human; details: in vivo
Experimental: as §1, with “The specificity of PCR conditions was confirmed by the agarose gel electrophoresis. Amplicons were prepared twice for every exons. The amplicons were subsequently treated with ExoSAP-IT (GE Healthcare) followed by the reactions with a cycle sequencing kit (BigDye Terminator v3.1, Applied Biosystems).” left out, “The resulted sequences were compared against the reference sequence using the variant reporter software (Applied Biosystems).” left out

[4] = TP300 1 mg/m^2 1-hour i.v. infusion, N=3
[5] = TP300 2 mg/m^2 1-hour i.v. infusion, N=3
[6] = TP300 4 mg/m^2 1-hour i.v. infusion, N=3
[7] = TP300 6 mg/m^2 1-hour i.v. infusion, N=3
[8] = TP300 8 mg/m^2 1-hour i.v. infusion, N=3
[9] = TP300 10 mg/m^2 1-hour i.v. infusion, N=12
[10] = TP300 12 mg/m^2 1-hour i.v. infusion, N=4

Structure (SMILES): CCc1c2c(nc3ccc(O)cc13)-c1cc3c(c(=O)n1C2)COC(=O)[C@]3(O)CC [SN-38]
- AUC of SN-38 at which DLTs occur [1]: 1.5 µM·h

Structure (SMILES): CCCCCN1C(=O)Nc2cccc3nc4c(c1c23)Cn1c-4cc2c(c1=O)COC(=O)[C@]2(O)CC [TP3011]
- fe (urinary excretion ratio) [2, 4]: 0.792%
- fe (urinary excretion ratio) [2, 5]: 0.739%
- fe (urinary excretion ratio) [2, 6]: 0.796%
- fe (urinary excretion ratio) [2, 7]: 0.593%
- fe (urinary excretion ratio) [2, 8]: 0.594%
- fe (urinary excretion ratio) [2, 9]: 1.10%
- fe (urinary excretion ratio) [2, 10]: 1.99%
- Urinary excretion ratios ([2]; human, in vivo): at most 6%
- dose dependence of Cmax and AUC ([2]; human, in vivo): increased proportionately
- Tmax ([2]; human, in vivo, Tmax): 3 to 5 h
- half-life ([2]; human, in vivo, iv, t1/2): 6.92 h
- IC50 [3]: sub-nanomolar range
- Topo-1 inhibition relative to SN38 (Topo-1): equipotent
- difference of exposure (Cmax, AUC) among AOX1 (c3404A > G) genotypes (AOX1): no apparent significant difference
- difference in exposure (Cmax, AUC) among UGT1A1*28 genotypes (UGT1A1): no apparent significant difference
- exposure in CYP2D6 extensive metabolisers (CYP2D6): slight decrease

Structure (SMILES): CCCCCN1C=Nc2cccc3nc4c(c1c23)Cn1c-4cc2c(c1=O)COC(=O)[C@]2(O)CC [TP3076]
- fe (urinary excretion ratio) [2, 4]: 2.45%
- fe (urinary excretion ratio) [2, 5]: 2.87%
- fe (urinary excretion ratio) [2, 6]: 1.31%
- fe (urinary excretion ratio) [2, 7]: 1.78%
- fe (urinary excretion ratio) [2, 8]: 1.71%
- fe (urinary excretion ratio) [2, 9]: 3.09%
- fe (urinary excretion ratio) [2, 10]: 6.33%
- Urinary excretion ratios ([2]; human, in vivo): at most 6%
- dose dependence of Cmax and AUC ([2]; human, in vivo): increased proportionately
- Tmax ([2]; human, in vivo, Tmax): 1 h
- Tmax ([2]; human, in vivo, iv, tmax): 1.26 h
- Glucuronidated TP3076 (detection) ([2]; in vivo): not detected
- IC50 [3]: sub-nanomolar range
- Topo-1 inhibition relative to SN38 (Topo-1): equipotent
- difference of exposure (Cmax, AUC) among AOX1 (c3404A > G) genotypes (AOX1): no apparent significant difference
- difference in exposure (Cmax, AUC) among UGT1A1*28 genotypes (UGT1A1): no apparent significant difference
- exposure in CYP2D6 extensive metabolisers (CYP2D6): slight reduction
